PubChem BioAssay (NCI)
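Each compound was tested at five concentrations against cells in 96-well plates for 48 hours. TGI: concentration producing complete growth inhibition.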

Experiments:
Assay in all cases: NCI tumour cell line growth inhibition, 48 h
SW-620 colon = test system: SW-620 colon
EKVX NSCLC = test system: EKVX NSCLC
K-562 leukemia = test system: K-562 leukemia
SNB-75 CNS = test system: SNB-75 CNS
HOP-62 NSCLC = test system: HOP-62 NSCLC
SN12C renal = test system: SN12C renal
OVCAR-4 ovarian = test system: OVCAR-4 ovarian
HT29 colon = test system: HT29 colon
HCT-15 colon = test system: HCT-15 colon
SK-MEL-2 melanoma = test system: SK-MEL-2 melanoma
CAKI-1 renal = test system: CAKI-1 renal
COLO 205 colon = test system: COLO 205 colon
UACC-257 melanoma = test system: UACC-257 melanoma
HCT-116 colon = test system: HCT-116 colon
KM20L2 colon = test system: KM20L2 colon
SR leukemia = test system: SR leukemia
MOLT-4 leukemia = test system: MOLT-4 leukemia
UACC-62 melanoma = test system: UACC-62 melanoma
SF-268 CNS = test system: SF-268 CNS
RXF 393 renal = test system: RXF 393 renal
UO-31 renal = test system: UO-31 renal
SK-OV-3 ovarian = test system: SK-OV-3 ovarian
HOP-92 NSCLC = test system: HOP-92 NSCLC
TK-10 renal = test system: TK-10 renal
M19-MEL melanoma = test system: M19-MEL melanoma
DMS 114 small cell lung = test system: DMS 114 small cell lung
SF-539 CNS = test system: SF-539 CNS
DMS 273 small cell lung = test system: DMS 273 small cell lung
MALME-3M melanoma = test system: MALME-3M melanoma
M14 melanoma = test system: M14 melanoma
SNB-78 CNS = test system: SNB-78 CNS
LOX IMVI melanoma = test system: LOX IMVI melanoma
U251 CNS = test system: U251 CNS
SK-MEL-5 melanoma = test system: SK-MEL-5 melanoma
DLD-1 colon = test system: DLD-1 colon
NCI-H23 lung = test system: NCI-H23 lung
IGROV1 ovarian = test system: IGROV1 ovarian
LXFL 529 NSCLC = test system: LXFL 529 NSCLC
RXF-631 renal = test system: RXF-631 renal
A549 NSCLC = test system: A549 NSCLC
SNB-19 CNS = test system: SNB-19 CNS
CCRF-CEM leukemia = test system: CCRF-CEM leukemia
NCI-H460 lung = test system: NCI-H460 lung
NCI-H226 lung = test system: NCI-H226 lung
HL-60(TB) leukemia = test system: HL-60(TB) leukemia
OVCAR-5 ovarian = test system: OVCAR-5 ovarian
SF-295 CNS = test system: SF-295 CNS
SK-MEL-28 melanoma = test system: SK-MEL-28 melanoma
OVCAR-3 ovarian = test system: OVCAR-3 ovarian
786-0 renal = test system: 786-0 renal
HOP-18 NSCLC = test system: HOP-18 NSCLC
HCC-2998 colon = test system: HCC-2998 colon
KM12 colon = test system: KM12 colon
RPMI-8226 leukemia = test system: RPMI-8226 leukemia
XF 498 CNS = test system: XF 498 CNS
OVCAR-8 ovarian = test system: OVCAR-8 ovarian
ACHN renal = test system: ACHN renal
NCI-H522 lung = test system: NCI-H522 lung
A498 renal = test system: A498 renal

Structure (SMILES): FC(F)(F)C1(Br)C(c2ccccc2)=C1c1ccccc1
- TGI (SW-620 colon): 33.5 µM
- TGI (EKVX NSCLC): > 100 µM
- TGI (K-562 leukemia): 28.2 µM
- TGI (SNB-75 CNS): 88.6 µM
- TGI (HOP-62 NSCLC): 39.4 µM
- TGI (SN12C renal): 28.3 µM
- TGI (OVCAR-4 ovarian): 54 µM
- TGI (HT29 colon): 34.8 µM
- TGI (HCT-15 colon): 28 µM
- TGI (SK-MEL-2 melanoma): 30 µM
- TGI (CAKI-1 renal): 54.7 µM
- TGI (COLO 205 colon): 34.9 µM
- TGI (UACC-257 melanoma): 43 µM
- TGI (HCT-116 colon): 20.2 µM
- TGI (KM20L2 colon): 36.3 µM
- TGI (SR leukemia): 78.5 µM
- TGI (MOLT-4 leukemia): > 100 µM
- TGI (UACC-62 melanoma): 30.8 µM
- TGI (SF-268 CNS): 43.9 µM
- TGI (RXF 393 renal): 31.7 µM
- TGI (UO-31 renal): 33.9 µM
- TGI (SK-OV-3 ovarian): > 100 µM
- TGI (HOP-92 NSCLC): 32.2 µM
- TGI (TK-10 renal): 48.6 µM
- TGI (M19-MEL melanoma): 30 µM
- TGI (DMS 114 small cell lung): 31.4 µM
- TGI (SF-539 CNS): 37 µM
- TGI (DMS 273 small cell lung): 36.3 µM
- TGI (MALME-3M melanoma): 30.5 µM
- TGI (M14 melanoma): 35 µM
- TGI (SNB-78 CNS): 96.6 µM
- TGI (LOX IMVI melanoma): 28 µM
- TGI (U251 CNS): 30.2 µM
- TGI (SK-MEL-5 melanoma): 28.8 µM
- TGI (DLD-1 colon): 43 µM
- TGI (NCI-H23 lung): 32.7 µM
- TGI (IGROV1 ovarian): 74.3 µM
- TGI (LXFL 529 NSCLC): 28.1 µM
- TGI (RXF-631 renal): > 100 µM
- TGI (A549 NSCLC): 85.7 µM
- TGI (SNB-19 CNS): 59.2 µM
- TGI (CCRF-CEM leukemia): 30.2 µM
- TGI (NCI-H460 lung): 80.1 µM
- TGI (NCI-H226 lung): 46.3 µM
- TGI (HL-60(TB) leukemia): > 100 µM
- TGI (OVCAR-5 ovarian): 52 µM
- TGI (SF-295 CNS): 28.7 µM
- TGI (SK-MEL-28 melanoma): 33.8 µM
- TGI (OVCAR-3 ovarian): 29.6 µM
- TGI (786-0 renal): 31 µM
- TGI (HOP-18 NSCLC): 31.1 µM
- TGI (HCC-2998 colon): 38.4 µM
- TGI (KM12 colon): 29.4 µM
- TGI (RPMI-8226 leukemia): > 100 µM
- TGI (XF 498 CNS): 30.7 µM
- TGI (OVCAR-8 ovarian): 30.5 µM
- TGI (ACHN renal): 40.3 µM

Structure (SMILES): CCOC(=N)/C(=C1\OC(N)=C(c2ccc(Cl)cc2)C1=O)c1ccc(Cl)cc1
- TGI (SW-620 colon): 32.1 µM
- TGI (EKVX NSCLC): 32.7 µM
- TGI (K-562 leukemia): 53.6 µM
- TGI (SNB-75 CNS): 38.5 µM
- TGI (HOP-62 NSCLC): 43.6 µM
- TGI (SN12C renal): 28.6 µM
- TGI (OVCAR-4 ovarian): 31.9 µM
- TGI (HT29 colon): 52.6 µM
- TGI (CAKI-1 renal): 62.8 µM
- TGI (COLO 205 colon): 30.2 µM
- TGI (UACC-257 melanoma): 35.1 µM
- TGI (HCT-116 colon): 30.7 µM
- TGI (KM20L2 colon): 37.1 µM
- TGI (SR leukemia): 56.5 µM
- TGI (MOLT-4 leukemia): 52.1 µM
- TGI (UACC-62 melanoma): 29 µM
- TGI (SF-268 CNS): 31.3 µM
- TGI (RXF 393 renal): 27.2 µM
- TGI (UO-31 renal): 31.3 µM
- TGI (SK-OV-3 ovarian): > 100 µM
- TGI (HOP-92 NSCLC): 34 µM
- TGI (TK-10 renal): 51.9 µM
- TGI (M19-MEL melanoma): 34.7 µM
- TGI (DMS 114 small cell lung): 40.6 µM
- TGI (SF-539 CNS): 30.2 µM
- TGI (DMS 273 small cell lung): 34.4 µM
- TGI (MALME-3M melanoma): 28.2 µM
- TGI (M14 melanoma): 31.6 µM
- TGI (SNB-78 CNS): > 100 µM
- TGI (LOX IMVI melanoma): 28.1 µM
- TGI (U251 CNS): 30.8 µM
- TGI (NCI-H522 lung): 29.4 µM
- TGI (DLD-1 colon): 28.8 µM
- TGI (NCI-H23 lung): 28.6 µM
- TGI (IGROV1 ovarian): > 100 µM
- TGI (A498 renal): 32.5 µM
- TGI (LXFL 529 NSCLC): 27.8 µM
- TGI (RXF-631 renal): 80.4 µM
- TGI (A549 NSCLC): 66.7 µM
- TGI (SNB-19 CNS): 49.9 µM
- TGI (CCRF-CEM leukemia): 65.6 µM
- TGI (NCI-H460 lung): 46 µM
- TGI (NCI-H226 lung): 49.9 µM
- TGI (HL-60(TB) leukemia): 42 µM
- TGI (OVCAR-5 ovarian): 35 µM
- TGI (SF-295 CNS): 55.8 µM
- TGI (SK-MEL-28 melanoma): 31.7 µM
- TGI (OVCAR-3 ovarian): 32.8 µM
- TGI (786-0 renal): 32.7 µM
- TGI (HOP-18 NSCLC): 72.6 µM
- TGI (HCC-2998 colon): 32.7 µM
- TGI (KM12 colon): 34.4 µM
- TGI (RPMI-8226 leukemia): 47.6 µM
- TGI (XF 498 CNS): 23.6 µM
- TGI (OVCAR-8 ovarian): 28.7 µM
- TGI (ACHN renal): 51 µM
